The numbers were not newly measured in paper PMC6941357, “An in vitro toolbox to accelerate anti-malarial drug discovery and development” (Malaria Journal, 2020), which cites them from elsewhere.

Where “and” joins values, the source holds several entries; their conditions need not be identical. Equal values may be shown once. Read-outs that look alike come from different tables or passages of the source. Marks after values point to notes of the source that are not given here. A value given as a limit tells only on which side of the number the result lay.

The conditions of data set [1]: human, cited from earlier work.
The target in a further data set is T1, CYP1A2 (Homo sapiens, UniProt P05177).
T1 sequence (P05177 1-516): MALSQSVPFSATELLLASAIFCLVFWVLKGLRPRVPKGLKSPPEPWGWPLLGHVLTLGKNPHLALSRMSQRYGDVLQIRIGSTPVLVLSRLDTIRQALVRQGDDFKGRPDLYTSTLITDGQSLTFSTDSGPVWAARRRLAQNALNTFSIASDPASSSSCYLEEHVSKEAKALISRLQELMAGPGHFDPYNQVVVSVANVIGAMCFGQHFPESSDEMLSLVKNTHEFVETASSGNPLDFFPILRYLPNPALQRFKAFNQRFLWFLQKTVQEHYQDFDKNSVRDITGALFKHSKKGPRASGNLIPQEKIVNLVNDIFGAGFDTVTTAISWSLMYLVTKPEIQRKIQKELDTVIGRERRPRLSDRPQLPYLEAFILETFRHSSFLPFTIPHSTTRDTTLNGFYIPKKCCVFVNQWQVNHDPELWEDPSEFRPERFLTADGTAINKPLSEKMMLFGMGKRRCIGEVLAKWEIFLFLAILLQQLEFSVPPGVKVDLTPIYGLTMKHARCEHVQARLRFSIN
Set-up: from tissue; host or cells: human liver microsomes. The following applies: human liver microsomes, cited from earlier work; for CYP1A2 % inhibition at max conc: nmi = no measurable inhibition.

For another data set, the target named is CYP2C19 (Homo sapiens, UniProt P33261). Set-up: from tissue; host or cells: human liver microsomes. The following applies: human liver microsomes, cited from earlier work. In general terms: Microsomes from liver hold many membrane-bound enzymes, among them those of drug oxidation.
Chain of CYP2C19 (P33261 whole entry): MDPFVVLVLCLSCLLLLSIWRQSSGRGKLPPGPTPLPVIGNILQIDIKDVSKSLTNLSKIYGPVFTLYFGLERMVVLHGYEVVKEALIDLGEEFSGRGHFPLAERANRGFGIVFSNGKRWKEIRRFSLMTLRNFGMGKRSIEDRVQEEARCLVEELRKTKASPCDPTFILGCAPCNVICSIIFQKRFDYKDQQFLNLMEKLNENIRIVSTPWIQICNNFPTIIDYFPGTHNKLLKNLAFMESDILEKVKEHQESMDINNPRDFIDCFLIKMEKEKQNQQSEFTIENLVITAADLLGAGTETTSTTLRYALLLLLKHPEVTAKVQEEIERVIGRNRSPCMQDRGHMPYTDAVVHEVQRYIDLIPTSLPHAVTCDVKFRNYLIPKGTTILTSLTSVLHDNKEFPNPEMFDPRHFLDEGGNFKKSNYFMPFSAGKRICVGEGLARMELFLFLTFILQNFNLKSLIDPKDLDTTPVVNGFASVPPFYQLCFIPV
In a further data set the target is CYP2D6 (Homo sapiens, UniProt P10635). Set-up: from tissue; host or cells: human liver microsomes. As to conditions: human liver microsomes, cited from earlier work.
Chain of CYP2D6 (P10635 whole entry): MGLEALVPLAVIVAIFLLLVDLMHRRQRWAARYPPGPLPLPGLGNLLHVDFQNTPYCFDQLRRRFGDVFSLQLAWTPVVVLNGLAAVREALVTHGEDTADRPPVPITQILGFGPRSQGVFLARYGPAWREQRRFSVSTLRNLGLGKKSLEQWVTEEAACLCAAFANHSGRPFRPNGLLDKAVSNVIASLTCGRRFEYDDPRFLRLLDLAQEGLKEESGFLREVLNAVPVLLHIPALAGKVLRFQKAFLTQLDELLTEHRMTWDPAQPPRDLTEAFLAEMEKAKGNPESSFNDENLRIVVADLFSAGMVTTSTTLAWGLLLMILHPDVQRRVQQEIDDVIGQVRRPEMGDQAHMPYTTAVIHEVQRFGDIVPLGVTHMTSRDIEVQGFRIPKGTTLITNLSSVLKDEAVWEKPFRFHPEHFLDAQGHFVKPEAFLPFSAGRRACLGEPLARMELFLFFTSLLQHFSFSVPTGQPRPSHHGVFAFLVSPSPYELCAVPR
The next data set concerns the target CYP2C9 (Homo sapiens, UniProt P11712). Set-up: from tissue; host or cells: human liver microsomes. The following applies: human liver microsomes, cited from earlier work.
The test system of data set [2] is human liver microsomes. As to conditions: human liver microsomes, cited from earlier work.
Data set [3] has as its system human liver microsomes. As to conditions: ref 79 (DSM265), 78 (DSM421); cited from earlier work.
For data set [4] the following is noted: cited from earlier work; for Solubility FaSSIF-V2 (5–6 h) / Solubility FaSSGF (1 h) / Solubility FeSSIF-V2 (5–6 h): ref 77 (M5717), 78 (DSM421), 79 (DSM265).
The target of data set [5] is T2, Albumax medium (lipid rich bovine serum albumin) (Bos taurus, UniProt P02769).
T2 construct: purchased Gibco, Thermo Fisher Scientific
T2 sequence (P02769 25-607): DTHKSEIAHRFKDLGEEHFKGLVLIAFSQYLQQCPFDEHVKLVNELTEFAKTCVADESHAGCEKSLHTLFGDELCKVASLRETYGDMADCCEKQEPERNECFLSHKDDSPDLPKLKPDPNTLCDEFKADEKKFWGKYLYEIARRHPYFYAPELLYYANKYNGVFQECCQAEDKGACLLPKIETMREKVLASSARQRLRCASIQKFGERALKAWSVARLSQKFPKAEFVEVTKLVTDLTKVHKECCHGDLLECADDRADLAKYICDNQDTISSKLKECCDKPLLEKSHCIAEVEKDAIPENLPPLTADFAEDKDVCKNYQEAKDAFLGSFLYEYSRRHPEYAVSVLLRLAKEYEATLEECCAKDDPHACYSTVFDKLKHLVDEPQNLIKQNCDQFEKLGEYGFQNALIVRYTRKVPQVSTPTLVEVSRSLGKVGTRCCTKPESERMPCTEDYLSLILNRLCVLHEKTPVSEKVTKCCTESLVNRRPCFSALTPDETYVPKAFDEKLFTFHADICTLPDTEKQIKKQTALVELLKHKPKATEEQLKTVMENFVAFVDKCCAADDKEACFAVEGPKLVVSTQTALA
Set-up: method as in PMID 26180101. As to conditions: cited from earlier work.

On the set-up of data set [6]: method as in earlier work. As to conditions: octanol/pH 7.4 buffer; ref 77 (M5717), 78 (DSM421); cited from earlier work.
Where [7] appears, read: apparent oral volume of distribution.

Chain of CYP2C9 (P11712 whole entry): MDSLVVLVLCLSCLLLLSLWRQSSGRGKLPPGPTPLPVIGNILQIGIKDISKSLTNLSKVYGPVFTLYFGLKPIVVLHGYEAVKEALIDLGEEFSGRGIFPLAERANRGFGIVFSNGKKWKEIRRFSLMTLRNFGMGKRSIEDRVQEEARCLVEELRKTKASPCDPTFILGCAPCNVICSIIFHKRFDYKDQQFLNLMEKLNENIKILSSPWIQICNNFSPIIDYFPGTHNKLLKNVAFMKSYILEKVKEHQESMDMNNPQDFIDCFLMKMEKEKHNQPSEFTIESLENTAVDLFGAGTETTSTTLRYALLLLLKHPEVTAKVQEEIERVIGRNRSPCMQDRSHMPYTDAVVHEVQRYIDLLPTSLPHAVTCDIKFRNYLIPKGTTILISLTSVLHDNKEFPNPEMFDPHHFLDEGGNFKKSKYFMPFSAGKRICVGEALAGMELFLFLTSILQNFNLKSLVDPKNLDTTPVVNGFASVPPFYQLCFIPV

For `CC(C)(N)CNC(=O)C[C@H]1CC[C@]2(CC1)OO[C@]1(O2)C2CC3CC(C2)CC1C3` [OZ277, Arterolane], the half-life – broadly, how long it takes for the measured level to halve – in data set [1] (in vivo, ref Table 10) is around 3 h. In addition, in data set [1], the CL/F – broadly, the apparent clearance, not corrected for the fraction that reaches the circulation – is 184 L/h; the Food effect result is given as “no”; the V/F is listed as 929 L; the half-life is 3 h.
Take `COc1cc(C)c2c(Oc3cccc(C(F)(F)F)c3)c(OC)cc(NC(C)CCCN)c2n1` (stereo not shown) [Tafenoquine]: in data set [1] (apparent oral clearance), the CL/F was 3.0 L/h. For the same compound, the V/F in data set [1] (setting [7]) is listed as 1600 L. Further, in data set [1], the Food effect result is recorded as “yes” and the half-life was 360 h. Moreover, in [1] (ref Table 10), the half-life is ~ 15 days.
`C[C@H]1[C@@H](O)O[C@@H]2O[C@@]3(C)CC[C@H]4[C@H](C)CC[C@@H]1[C@@]24OO3` [Dihydroartemisinin]: the half-life result in [1] (in vivo, ref Table 10) was “approximately 1 h”. Further, in [1], the CL/F is given as 272 L/h, the Food effect result is on record as “no” and the V/F is recorded as 385 L.
For the compound `CS(=O)(=O)O.FC1CCN(CCOc2ccc(C3CCC4(CC3)OOC3(OO4)C4CC5CC(C4)CC3C5)cc2)CC1` (stereo not shown) [TDD-E209], the IC50 at CYP1A2, at CYP2C19, on CYP2D6 and at CYP2C9 was above 20 µM each time. For the same compound, on CYP1A2, the “CYP1A2 % inhibition at max conc” value is recorded as “nmi”. Also, the “CYP2C19 % inhibition at max conc” value at CYP2C19 (nmi = no measurable inhibition) is “nmi”. In addition, the “CYP2D6 % inhibition at max conc” value at CYP2D6 (nmi = no measurable inhibition) is recorded as “nmi”. Also, at CYP2C9 (nmi = no measurable inhibition), the “CYP2C9 % inhibition at max conc” value is given as “nmi”. For the same compound, the “HLM CLint” value in the data set on human liver microsomes [2] was 25.5^e µL/min/mg.
In the case of `COc1cc(NC(C)CCCN)c2ncccc2c1` (stereo not shown) [Primaquine], the half-life is reported as ~ 7 h in [1] (in vivo, ref Table 10) and 7 h in [1]. Moreover, in data set [1] (apparent oral clearance), the CL/F is reported as 28 L/h. In data set [1] (setting [7]), the V/F was 277 L. In addition, the Food effect entry in [1] is listed as “no”.
Consider `Cc1cc(Nc2ccc(S(F)(F)(F)(F)F)cc2)n2nc(C(C)(F)F)nc2n1` [DSM265], for which the “Fraction unbound, HLM” value in the data set with human liver microsomes [3] was 0.28 ± 0.0070^f. At CYP1A2, the IC50 (as a rule, the point on the concentration scale where inhibition reaches its midpoint) is above 20 µM and the “CYP1A2 % inhibition at max conc” value is listed as “nmi”. At CYP2C19, the “CYP2C19 % inhibition at max conc” value is 19% and the IC50 is above 20 µM. For the same compound, on CYP2D6, the IC50 is 7.1 µM and the Ki (commonly the equilibrium dissociation constant of an inhibitor or competing ligand from its target) was 4.4 µM. In addition, the “Solubility FaSSIF-V2 (5–6 h)” value in data set [4] was 5.12 µg/mL and 12.3 µM. Besides, at CYP2C9, the “CYP2C9 % inhibition at max conc” value was 25% and the IC50 is above 20 µM. For the same compound, the “HLM CLint” value in the data set with human liver microsomes [2] (< 15% loss over 60 min) was < 7^b,e µL/min/mg. For the same compound, in data set [5], the “Fraction unbound, Albumax” value is on record as 0.18 ± 0.0050^f.
For the compound `Cc1cc(Nc2ccc(C(F)(F)F)nc2)n2nc(C(C)(F)F)nc2n1` [DSM421], the “Fraction unbound, HLM” value with human liver microsomes [3] is on record as 0.77 ± 0.065^f. Besides, on CYP1A2, the half-maximal inhibitory concentration (IC50) was above 20 µM and the “CYP1A2 % inhibition at max conc” value is “nmi”. In addition, the IC50 on CYP2C19 was above 20 µM. For the same compound, at CYP2C19 (nmi = no measurable inhibition), the “CYP2C19 % inhibition at max conc” value is on record as “nmi”. In addition, on CYP2D6, the “CYP2D6 % inhibition at max conc” value is on record as 33% and the IC50 is above 20 µM. Also, in data set [4], the “Solubility FaSSGF (1 h)” value was 116 µg/mL and 324 µM; the “Solubility FaSSIF-V2 (5–6 h)” value was 92.7 µg/mL and 259 µM; the “Solubility FeSSIF-V2 (5–6 h)” value is 119 µg/mL and 332 µM. Further, in data set [6], the “Measured Log D7.4” value is on record as 2.36 ^g. For the same compound, at CYP2C9, the “CYP2C9 % inhibition at max conc” value was 16% and the IC50 was above 20 µM.
`O=C(NCCN1CCCC1)c1cc(-c2ccc(CN3CCOCC3)cc2)nc2ccc(F)cc12` [M5717]: in [4], the “Solubility PBS7.4 (5–6 h)” value was > 3000 µg/mL and > 6490 µM; the “Solubility FaSSGF (1 h)” value is > 3000 µg/mL and > 6490 µM; the “Solubility FaSSIF-V2 (5–6 h)” value was > 3000 µg/mL and > 6490 µM; the “Solubility FeSSIF-V2 (5–6 h)” value is > 3000 µg/mL and > 6486 µM. For the same compound, in [6], the “Measured Log D7.4” value is recorded as 2.50 ^g.
